In ChEMBL document CHEMBL4507263, “Data for DCP probe BAY-474” (2021) one finds inhibition and residual activity data, which are given here for two compounds.

In series [1] the target is Serine/threonine-protein kinase BRSK2 (Homo sapiens) (UniProt Q8IWQ3). Briefly: BrSK2 (h) Millipore kinase activity assay. Particulars: Compound concentration 1.0 uM; call rule not given here.
In series [2] the target is Tyrosine-protein kinase BTK (Homo sapiens) (UniProt Q06187). Nature of the series: BTK (h) Millipore kinase activity assay. As to conditions: Compound concentration 1.0 uM.
Sequence of Tyrosine-protein kinase BTK (Homo sapiens) (Q06187 whole entry): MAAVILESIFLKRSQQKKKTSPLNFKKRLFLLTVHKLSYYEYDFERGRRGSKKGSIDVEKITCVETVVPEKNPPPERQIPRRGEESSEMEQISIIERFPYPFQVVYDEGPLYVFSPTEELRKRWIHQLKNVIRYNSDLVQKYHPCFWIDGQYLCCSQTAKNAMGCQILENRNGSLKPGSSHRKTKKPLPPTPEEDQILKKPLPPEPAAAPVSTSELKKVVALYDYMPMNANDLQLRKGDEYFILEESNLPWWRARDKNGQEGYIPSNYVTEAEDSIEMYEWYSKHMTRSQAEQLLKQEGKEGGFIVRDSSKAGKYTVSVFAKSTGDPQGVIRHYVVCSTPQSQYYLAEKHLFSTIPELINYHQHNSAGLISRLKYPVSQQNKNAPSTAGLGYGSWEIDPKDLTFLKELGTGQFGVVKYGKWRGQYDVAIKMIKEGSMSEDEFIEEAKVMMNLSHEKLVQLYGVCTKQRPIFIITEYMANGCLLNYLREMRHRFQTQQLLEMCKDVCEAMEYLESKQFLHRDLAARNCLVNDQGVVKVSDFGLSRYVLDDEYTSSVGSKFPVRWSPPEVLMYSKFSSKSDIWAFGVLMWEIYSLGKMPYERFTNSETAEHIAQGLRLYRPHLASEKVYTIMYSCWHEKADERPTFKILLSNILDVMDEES
Series [3] addresses CDK7/Cyclin H/MNAT1 (Homo sapiens) (UniProt P51946+P50613+P51948). Briefly: CDK7/cyclinH/MAT1 (h) Millipore kinase activity assay. Format: protein-complex assay. Particulars: Compound concentration 1.0 uM.
Series [4] deals with CDK9/cyclin T1 (Homo sapiens) (UniProt O60563+P50750). Nature of the series: CDK9/cyclin T1 (h) Millipore kinase activity assay. Format: protein-complex assay. Particulars: Compound concentration 1.0 uM.
The target in series [5] is Casein kinase II subunit alpha (Homo sapiens) (UniProt P68400). Briefly: CK2 (h) Millipore kinase activity assay. Particulars: Compound concentration 1.0 uM.
Series [6] has as its target Fibroblast growth factor receptor 2 (Homo sapiens) (UniProt P21802). Briefly: FGFR2 (h) Millipore kinase activity assay. Particulars: Compound concentration 1.0 uM.
Series [7] concerns the target G protein-coupled receptor kinase 6 (Homo sapiens) (UniProt P43250). Briefly: GRK6 (h) Millipore kinase activity assay. As to conditions: Compound concentration 1.0 uM.
Series [8] addresses Hepatocyte growth factor receptor (Homo sapiens, UniProt P08581). Briefly: Met (h) Millipore kinase activity assay. Particulars: Compound concentration 1.0 uM.
Series [9] concerns the target Protein kinase C gamma type (Homo sapiens) (UniProt P05129). Briefly: PKCgamma(h) Millipore kinase activity assay. Particulars: Compound concentration 1.0 uM.
Series [10] has as its target Protein kinase C theta type (Homo sapiens) (UniProt Q04759). Briefly: PKCtheta (h) Millipore kinase activity assay. As to conditions: Compound concentration 1.0 uM.
Series [11] has as its target Serine/threonine-protein kinase SIK1 (Homo sapiens) (UniProt P57059). Briefly: SIK (h) Millipore kinase activity assay. Particulars: Compound concentration 1.0 uM.
Series [12] deals with Serine/threonine-protein kinase TBK1 (Homo sapiens) (UniProt Q9UHD2). Briefly: TBK1 (h) Millipore kinase activity assay. As to conditions: Compound concentration 1.0 uM.
Sequence of Serine/threonine-protein kinase TBK1 (Homo sapiens) (Q9UHD2 whole entry): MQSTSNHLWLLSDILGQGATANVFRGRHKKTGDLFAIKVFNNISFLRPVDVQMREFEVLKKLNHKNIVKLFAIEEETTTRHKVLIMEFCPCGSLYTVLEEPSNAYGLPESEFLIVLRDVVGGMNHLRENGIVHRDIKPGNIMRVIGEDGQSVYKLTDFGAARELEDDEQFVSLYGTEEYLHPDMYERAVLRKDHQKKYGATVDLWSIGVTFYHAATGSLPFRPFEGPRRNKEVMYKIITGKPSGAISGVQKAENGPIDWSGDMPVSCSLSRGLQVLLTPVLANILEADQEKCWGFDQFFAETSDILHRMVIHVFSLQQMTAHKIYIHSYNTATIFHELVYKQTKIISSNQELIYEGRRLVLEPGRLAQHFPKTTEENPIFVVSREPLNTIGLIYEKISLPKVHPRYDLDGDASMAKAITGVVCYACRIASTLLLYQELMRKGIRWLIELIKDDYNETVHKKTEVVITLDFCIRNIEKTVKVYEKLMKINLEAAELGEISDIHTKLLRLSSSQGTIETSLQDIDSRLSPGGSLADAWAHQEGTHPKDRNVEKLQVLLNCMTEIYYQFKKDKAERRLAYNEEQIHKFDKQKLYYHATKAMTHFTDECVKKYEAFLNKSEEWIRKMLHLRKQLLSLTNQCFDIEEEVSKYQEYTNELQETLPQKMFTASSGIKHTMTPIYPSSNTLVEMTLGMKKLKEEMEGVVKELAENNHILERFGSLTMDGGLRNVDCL
Series [13] has as its target Serine/threonine-protein kinase ULK3 (Homo sapiens) (UniProt Q6PHR2). Briefly: ULK3 (h) Millipore kinase activity assay. As to conditions: Compound concentration 1.0 uM.
The target in series [14] is L-type calcium channel, dihydropyridine site (Cav1.2 alpha-1C) (Homo sapiens, UniProt Q13936). Nature of the series: Inhibition of Calcium Channel L-Type, Dihydropyridine at 10 µM in the Eurofins-Panlabs radioligand binding assay (Eurofins_assay_214600). Also on record: ligand concentration 0.1 nM, non-specific ligand with concentration 1 µM Nitrendipine, incubation time 90 min, incubation temperature 25 °C. As to conditions: Wistar, rat, rat cerebral cortex preparation, probe [3H] Nitrendipine; compound concentration 10 uM; target entry is the homologue from another species.

The target of series [15] is Epidermal growth factor receptor (Homo sapiens) (UniProt P00533). Briefly: Inhibition of Epidermal Growth Factor (EGF) at 10 µM in the Eurofins-Panlabs radioligand binding assay (Eurofins_assay_225510). Particulars: Compound concentration 10.0 uM.
In series [16] the target is Platelet-activating factor receptor (Homo sapiens) (UniProt P25105). Briefly: Inhibition of Platelet Activating Factor (PAF) at 10 µM in the Eurofins-Panlabs radioligand binding assay (Eurofins_assay_265010). As to conditions: Compound concentration 10.0 uM.
For series [17], the system named is Tyrosine-protein kinase ABL1 (Homo sapiens), P00519 [H396P]. As to conditions: Compound concentration 1000.0 nM.
Series [18] has as its system Tyrosine-protein kinase ABL1 (Homo sapiens), P00519 [Q252H]. Particulars: Compound concentration 1000.0 nM.
The target in series [19] is Activin receptor type-1 (Homo sapiens) (UniProt Q04771). As to conditions: Compound concentration 1000.0 nM.
For series [20], the target named is Ankyrin repeat and protein kinase domain-containing protein 1 (Homo sapiens) (UniProt Q8NFD2). Particulars: Compound concentration 1000.0 nM.
In series [21] the target is Aurora kinase B (Homo sapiens) (UniProt Q96GD4). As to conditions: Compound concentration 1000.0 nM.
Sequence of Aurora kinase B (Homo sapiens) (Q96GD4 whole entry): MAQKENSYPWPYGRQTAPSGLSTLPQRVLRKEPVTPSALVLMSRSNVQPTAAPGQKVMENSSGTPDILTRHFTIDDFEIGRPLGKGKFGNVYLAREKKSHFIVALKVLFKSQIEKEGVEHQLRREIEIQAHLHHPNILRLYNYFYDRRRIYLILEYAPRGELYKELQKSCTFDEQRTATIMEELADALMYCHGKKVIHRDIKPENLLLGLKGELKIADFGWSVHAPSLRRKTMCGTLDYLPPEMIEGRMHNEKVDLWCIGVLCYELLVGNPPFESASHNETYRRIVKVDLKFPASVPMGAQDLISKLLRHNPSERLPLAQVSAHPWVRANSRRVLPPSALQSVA
Series [22] deals with Tyrosine-protein kinase BTK (Homo sapiens) (UniProt Q06187). Particulars: Compound concentration 1000.0 nM.
The target in series [23] is Calcium/calmodulin-dependent protein kinase type II subunit delta (Homo sapiens) (UniProt Q13557). As to conditions: Compound concentration 1000.0 nM.
Sequence of Calcium/calmodulin-dependent protein kinase type II subunit delta (Homo sapiens) (Q13557 whole entry): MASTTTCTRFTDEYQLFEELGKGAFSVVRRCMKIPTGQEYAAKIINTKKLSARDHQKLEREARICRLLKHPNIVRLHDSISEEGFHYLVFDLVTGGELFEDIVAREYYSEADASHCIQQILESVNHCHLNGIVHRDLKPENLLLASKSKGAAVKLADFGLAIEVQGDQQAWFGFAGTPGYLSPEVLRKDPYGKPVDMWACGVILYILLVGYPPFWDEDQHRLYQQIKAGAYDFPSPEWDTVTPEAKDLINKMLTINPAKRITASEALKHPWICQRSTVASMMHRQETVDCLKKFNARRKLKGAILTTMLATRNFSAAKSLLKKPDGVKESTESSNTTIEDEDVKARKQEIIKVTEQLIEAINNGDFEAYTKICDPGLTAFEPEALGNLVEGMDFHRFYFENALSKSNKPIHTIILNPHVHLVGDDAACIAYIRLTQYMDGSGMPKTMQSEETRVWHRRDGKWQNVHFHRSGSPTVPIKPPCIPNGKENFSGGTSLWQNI
Series [24] has as its system Epidermal growth factor receptor (Homo sapiens), P00533 [G719S]. As to conditions: Compound concentration 1000.0 nM.
For series [25], the system named is Epidermal growth factor receptor (Homo sapiens), P00533 [UNDEFINED MUTATION]. As to conditions: Compound concentration 1000.0 nM.
Series [26] concerns the target Tyrosine-protein kinase Fgr (Homo sapiens) (UniProt P09769). Particulars: Compound concentration 1000.0 nM.
The target in series [27] is Interleukin-1 receptor-associated kinase 3 (Homo sapiens) (UniProt Q9Y616). As to conditions: Compound concentration 1000.0 nM.
For series [28], the target named is Mitogen-activated protein kinase 8 (Homo sapiens) (UniProt P45983). As to conditions: Compound concentration 1000.0 nM.
Sequence of Mitogen-activated protein kinase 8 (Homo sapiens) (P45983 whole entry, the tested form may be a part): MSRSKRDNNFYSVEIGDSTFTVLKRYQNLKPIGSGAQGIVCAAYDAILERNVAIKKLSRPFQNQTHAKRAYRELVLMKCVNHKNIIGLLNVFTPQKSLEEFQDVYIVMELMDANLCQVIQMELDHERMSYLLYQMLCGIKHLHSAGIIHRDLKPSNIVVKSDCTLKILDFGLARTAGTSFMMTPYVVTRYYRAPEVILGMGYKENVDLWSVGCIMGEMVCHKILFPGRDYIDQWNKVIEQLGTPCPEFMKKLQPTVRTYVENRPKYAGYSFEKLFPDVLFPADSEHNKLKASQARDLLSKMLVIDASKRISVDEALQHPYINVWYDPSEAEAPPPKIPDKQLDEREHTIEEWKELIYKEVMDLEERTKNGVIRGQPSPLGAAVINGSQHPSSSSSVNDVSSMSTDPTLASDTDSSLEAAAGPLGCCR
Series [29] concerns the target LIM domain kinase 1 (Homo sapiens) (UniProt P53667). Particulars: Compound concentration 1000.0 nM.
The target of series [30] is Leucine-rich repeat serine/threonine-protein kinase 2 (Homo sapiens) (UniProt Q5S007). Particulars: Compound concentration 1000.0 nM.
The target of series [31] is Leukocyte tyrosine kinase receptor (Homo sapiens) (UniProt P29376). As to conditions: Compound concentration 1000.0 nM.
Series [32] concerns the target Mitogen-activated protein kinase kinase kinase 1 (Homo sapiens) (UniProt Q13233). Particulars: Compound concentration 1000.0 nM.
Series [33] concerns the target MAP kinase-interacting serine/threonine-protein kinase 2 (Homo sapiens) (UniProt Q9HBH9). As to conditions: Compound concentration 1000.0 nM.
Series [34] concerns the target Macrophage-stimulating protein receptor (Homo sapiens) (UniProt Q04912). Particulars: Compound concentration 1000.0 nM.
Series [35] concerns the target Myosin light chain kinase family member 4 (Homo sapiens) (UniProt Q86YV6). As to conditions: Compound concentration 1000.0 nM.
Series [36] has as its target Serine/threonine-protein kinase Nek6 (Homo sapiens) (UniProt Q9HC98). Particulars: Compound concentration 1000.0 nM.
Series [37] addresses Mitogen-activated protein kinase 11 (Homo sapiens) (UniProt Q15759). As to conditions: Compound concentration 1000.0 nM.
Series [38] deals with 1-phosphatidylinositol 3-phosphate 5-kinase (Homo sapiens) (UniProt Q9Y2I7). As to conditions: Compound concentration 1000.0 nM.
Series [39] addresses Serine/threonine-protein kinase D3 (Homo sapiens) (UniProt O94806). As to conditions: Compound concentration 1000.0 nM.
The target in series [40] is Serine/threonine-protein kinase RIO3 (Homo sapiens) (UniProt O14730). As to conditions: Compound concentration 1000.0 nM.
In series [41] the target is Ribosomal protein S6 kinase alpha-2 (Homo sapiens) (UniProt Q15349). Particulars: Compound concentration 1000.0 nM.
Series [42] has as its target Serine/threonine-protein kinase ULK1 (Homo sapiens) (UniProt O75385). As to conditions: Compound concentration 1000.0 nM.
The target of series [43] is 5-hydroxytryptamine receptor 5A (Homo sapiens) (UniProt P47898). As to conditions: Compound concentration 10.0 uM.
The target in series [44] is Sodium-dependent noradrenaline transporter (Homo sapiens) (UniProt P23975). Particulars: Compound concentration 10.0 uM.

What is called inhibition is the drop in the measured response relative to a control, in per cent.

Sequence of G protein-coupled receptor kinase 6 (Homo sapiens) (P43250 whole entry, looked up): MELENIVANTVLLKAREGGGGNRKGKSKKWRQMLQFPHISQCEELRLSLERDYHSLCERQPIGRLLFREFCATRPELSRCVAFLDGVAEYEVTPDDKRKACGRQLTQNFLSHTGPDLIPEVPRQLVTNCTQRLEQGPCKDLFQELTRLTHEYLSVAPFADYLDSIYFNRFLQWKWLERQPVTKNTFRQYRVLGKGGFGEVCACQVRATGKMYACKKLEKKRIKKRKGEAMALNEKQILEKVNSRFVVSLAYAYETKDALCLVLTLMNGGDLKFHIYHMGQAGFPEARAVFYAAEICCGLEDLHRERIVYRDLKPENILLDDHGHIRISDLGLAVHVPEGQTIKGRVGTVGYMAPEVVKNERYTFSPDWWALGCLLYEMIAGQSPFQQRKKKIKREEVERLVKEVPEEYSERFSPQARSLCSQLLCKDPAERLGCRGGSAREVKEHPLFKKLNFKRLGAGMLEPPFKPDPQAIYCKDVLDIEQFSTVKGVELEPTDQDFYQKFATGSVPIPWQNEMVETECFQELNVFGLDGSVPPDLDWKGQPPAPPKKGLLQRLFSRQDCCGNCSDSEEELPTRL
Sequence of Protein kinase C theta type (Homo sapiens) (Q04759 whole entry, looked up): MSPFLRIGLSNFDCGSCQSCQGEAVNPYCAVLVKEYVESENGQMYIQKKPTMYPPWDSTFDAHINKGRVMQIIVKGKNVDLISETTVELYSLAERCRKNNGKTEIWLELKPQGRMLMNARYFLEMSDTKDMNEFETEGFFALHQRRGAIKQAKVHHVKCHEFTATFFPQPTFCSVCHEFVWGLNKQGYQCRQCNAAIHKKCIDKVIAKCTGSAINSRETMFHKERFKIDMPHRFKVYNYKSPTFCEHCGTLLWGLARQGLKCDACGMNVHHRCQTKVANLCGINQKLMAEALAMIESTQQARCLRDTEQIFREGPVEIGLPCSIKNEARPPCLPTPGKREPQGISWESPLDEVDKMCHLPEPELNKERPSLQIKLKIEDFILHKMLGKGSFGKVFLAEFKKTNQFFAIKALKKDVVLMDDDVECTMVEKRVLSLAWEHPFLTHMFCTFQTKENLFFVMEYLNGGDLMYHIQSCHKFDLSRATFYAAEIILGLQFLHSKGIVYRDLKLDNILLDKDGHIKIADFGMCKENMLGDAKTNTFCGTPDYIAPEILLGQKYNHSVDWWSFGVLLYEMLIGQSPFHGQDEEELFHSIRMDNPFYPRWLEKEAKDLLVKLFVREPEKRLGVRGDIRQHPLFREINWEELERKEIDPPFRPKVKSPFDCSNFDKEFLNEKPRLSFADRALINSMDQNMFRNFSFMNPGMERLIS
Sequence of Serine/threonine-protein kinase SIK1 (Homo sapiens) (P57059 whole entry): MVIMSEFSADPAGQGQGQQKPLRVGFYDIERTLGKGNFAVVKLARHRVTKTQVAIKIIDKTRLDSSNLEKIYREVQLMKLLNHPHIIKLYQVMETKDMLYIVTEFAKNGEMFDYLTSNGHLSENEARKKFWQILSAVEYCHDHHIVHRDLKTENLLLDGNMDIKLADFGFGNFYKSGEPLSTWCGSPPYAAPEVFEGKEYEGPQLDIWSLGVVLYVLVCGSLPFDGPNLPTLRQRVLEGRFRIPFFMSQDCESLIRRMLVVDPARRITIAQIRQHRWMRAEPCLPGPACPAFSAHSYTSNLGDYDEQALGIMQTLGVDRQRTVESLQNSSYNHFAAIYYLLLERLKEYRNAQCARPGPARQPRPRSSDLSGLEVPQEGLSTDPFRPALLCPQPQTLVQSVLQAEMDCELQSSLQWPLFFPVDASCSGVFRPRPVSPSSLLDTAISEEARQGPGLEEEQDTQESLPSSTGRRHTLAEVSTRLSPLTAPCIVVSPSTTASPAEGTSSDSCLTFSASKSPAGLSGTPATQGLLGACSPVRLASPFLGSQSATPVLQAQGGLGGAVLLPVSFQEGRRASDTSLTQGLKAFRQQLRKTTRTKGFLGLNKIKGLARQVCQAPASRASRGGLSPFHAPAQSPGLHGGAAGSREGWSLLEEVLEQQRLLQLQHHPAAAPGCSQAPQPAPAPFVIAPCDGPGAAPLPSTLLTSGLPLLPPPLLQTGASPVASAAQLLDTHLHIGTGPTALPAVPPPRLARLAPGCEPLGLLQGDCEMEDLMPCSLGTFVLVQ

For the compound `CC1=C(C#N)C(c2ccc3[nH]nc(C)c3c2)C(C#N)=C(C)N1` [BAY-474], the inhibition in [1] is 21%; in [2], -8%; in series [3] it was -1%; in [4], -10%; in [5], -8%; in [6], 17%. In addition, the inhibition is -2% in [7]; 82% in series [8]; 18% in series [9]; 15% in series [10]; -7% in [11]; -6% in series [12]. Further, the inhibition in [13] was -5%; in [15], 7%; in [16], 6%. Besides, the inhibition at 90 min, 10 µM in [14] is 0% (not active).
Regarding `CC1=C(C#N)[C@@H](c2ccc3[nH]nc(C)c3c2)C(C#N)=C(c2ccc(Cl)cc2)N1` [BAY-827], the residual activity in series [17] is 79.9%; in series [18] it was 100%; in series [19], 100%; in series [20], 100%; in series [21], 82.9%; in series [22], 99.9%. The residual activity in [23] was 82.1%; in series [24], 86.8%; in series [25], 100%; in series [26], 100%; in series [27], 96.4%; in series [28], 65.2%. The residual activity is 100% in series [29]; 91.7% in series [30]; 100% in series [31]; 100% in [32]; 90.6% in [33]; 70.2% in series [34]. Also, the residual activity in series [35] was 100%; in series [36] it was 100%; in series [37], 99.8%; in series [38], 100%; in [39], 100%; in series [40], 100%. In addition, the values for the residual activity in series [41] and in [42] were 85.4% and 100%, respectively. The inhibition is 4.53% in [43] and 8.56% in series [44].
